Data: patent publication US11155517B2, “4-substituted phenylamine derivatives and their use to protect crops by fighting undesired phytopathogenic micoorganisms” (PI INDUSTRIES LTD., priority 2016, dated 2021)

Assays:
Format in all cases: cell-based
Botrytis cinerea = Botrytis cinerea (gray mold) in vitro test, radial growth on Potato Dextrose Agar; settings: 168 h, 300 ppm, seven days, 22° C., read-out: % (control) compared to the untreated check (radial growth)
Colletotrichum capsici = Colletotrichum capsici (anthracnose) in vitro test, radial growth on Potato Dextrose Agar; settings: Colletotrichum truncatum, 168 h; 300 ppm; seven days, 25° C.; read-out: % control compared to the untreated check (radial growth)
Pyricularia oryzae = assay: microbe, parasite or virus in culture; settings: 168 h, read-out: % control compared to the untreated check (radial growth)
Rhizoctonia solani = Rhizoctonia solani (rice sheath blight/potato black scurf) in vitro test, radial growth on Potato Dextrose Agar; settings: 168 h, 300 ppm, seven days, 25° C., read-out: % control compared to the untreated check (radial growth)
Alternaria solani = Alternaria solani (early blight of tomato/potato) in vitro test, radial growth on Potato Dextrose Agar; settings: 168 h, 300 ppm, seven days, 25° C., read-out: % control compared to the untreated check (radial growth)
Septoria lycopersici = Septoria lycopersici (leaf spot of tomato) in vitro test, radial growth on Potato Dextrose Agar; settings: 168 h, seven days, 25° C., read-out: % control compared to the untreated check (radial growth)

SMILES | inhibition of growth at 300 ppm (Botrytis cinerea) | inhibition of growth at 300 ppm (Colletotrichum capsici) | inhibition of growth at 300 ppm (Pyricularia oryzae) | inhibition of growth at 300 ppm (Rhizoctonia solani) | inhibition of growth at 300 ppm (Alternaria solani) | inhibition of growth at 300 ppm (Septoria lycopersici)
CCN(C)C=Nc1cc(C)c(Cc2cccc(C(C)C#N)c2)cc1C (stereo not shown) [Compound 107, N′-(4-(3-(1-cyanoethyl)benzyl)-2,5-dimethylphenyl)-N-ethyl-N-methylformimidamide] | > 80% | > 80% | > 75% | > 80% | > 75% | –
CCN(C)C=Nc1cc(C#N)c(Cc2ccccc2Cl)cc1C [Compound 246, N′-(4-(2-chlorobenzyl)-5-cyano-2-methylphenyl)-N-ethyl-N-methylformimidamide] | > 80% | > 80% | > 75% | > 80% | > 75% | > 70%
CCN(C)C=Nc1cc(C)c(Cc2cccc(F)c2Cl)cc1C [Compound 131, N′-(4-(2-chloro-3-fluorobenzyl)-2,5-dimethylphenyl)-N-ethyl-N-methylformimidamide] | > 80% | > 80% | > 75% | > 80% | > 75% | > 70%
CCN(C)C=Nc1ccc(Cc2ccccc2Cl)c2ccccc12 [Compound 270, N′-(4-(2-chlorobenzyl)naphthalen-1-yl)-N-ethyl-N-methylformimidamide] | > 80% | > 80% | > 75% | > 80% | > 75% | > 70%
CCN(C)C=Nc1cc(C#N)c(Cc2ccccc2C)cc1C [Compound 248, N′-(5-cyano-2-methyl-4-(2-methylbenzyl)phenyl)-N-ethyl-N-methylformimidamide] | > 80% | – | > 75% | > 80% | > 75% | > 70%
CCN(C)C=Nc1ccc(Cc2ccccc2F)cc1 [Compound 163, N-ethyl-N′(4-(2-fluorobenzyl)phenyl)-N-methylformimidamide] | > 80% | > 80% | > 75% | > 80% | > 75% | > 70%
CCN(C)C=Nc1cc(C)c(Cc2ccc(Cl)c(F)c2)cc1Cl [Compound 95, N′-(2-chloro-4-(4-chloro-3-fluorobenzyl)-5-methylphenyl)-N-ethyl-N-methylformimidamide] | > 80% | > 80% | > 75% | > 80% | > 75% | –
CCN(C)C=Nc1cc(C)c(Cc2cccc(F)c2)cc1S(C)(=O)=O [Compound 216, N-ethyl-N′-(4-(3-fluorobenzyl)-5-methyl-2-(methylsulfonyl)phenyl)-N-methylformimidamide] | – | – | > 75% | > 80% | > 75% | > 70%
CCN(C)C=Nc1cc(C(F)(F)F)c(Cc2ccccc2C)cc1F [Compound 228, N-ethyl-N′-(2-fluoro-4-(2-methylbenzyl)-5-(trifluoromethyl)phenyl)-N-methylformimidamide] | – | – | > 75% | > 80% | > 75% | > 70%
CCN(C)C=Nc1cc(C(F)(F)F)c(Cc2cccc(Cl)c2)cc1F [Compound 229, N′-(4-(3-chlorobenzyl)-2-fluoro-5-(trifluoromethyl)phenyl)-N-ethyl-N-methylformimidamide] | – | – | > 75% | > 80% | > 75% | > 70%
CCN(C)C=Nc1cc(C)c(Cc2cc(Cl)cc(Cl)c2)cc1Cl [Compound 21, N′-(2-chloro-4-(3,5-dichlorobenzyl)-5-methylphenyl)-N-ethyl-N-methylformimidamide] | > 80% | > 80% | > 75% | > 80% | > 75% | –
CCN(C)C=Nc1cc(C)c(Cc2cccnc2)cc1Cl [Compound 204, N′-(2-chloro-5-methyl-4-(pyridin-3-ylmethyl)phenyl)-N-ethyl-N-methylformimidamide] | > 80% | > 80% | > 75% | > 80% | > 75% | –
Cc1cc(N(C#N)C=N)c(C)cc1Cc1ccccc1F [Compound 64, N-cyano-N-(4-(2-fluorobenzyl)-2,5-dimethylphenyl)formimidamide] | – | – | > 75% | – | – | > 70%
CCN(C)C=Nc1cc(C)c(C(C#N)c2ccccc2)cc1C (stereo not shown) [Compound 127, N′-(4-(cyano(phenyl)methyl)-2,5-dimethylphenyl)-N-ethyl-N-methylformimidamide] | – | > 80% | > 75% | > 80% | > 75% | –
CCN(C)C=Nc1cc(C)c(Cc2cccc(C(F)(F)F)c2)cc1F [Compound 205, N-ethyl-N′-(2-fluoro-5-methyl-4-(3-(trifluoromethyl)benzyl)phenyl)-N-methylformimidamide] | – | > 80% | > 75% | > 80% | > 75% | –
CCN(C)C=Nc1cc(C)c(Cc2cc(C)cc(F)c2)cc1Cl [Compound 140, N′-(2-chloro-4-(3-fluoro-5-methylbenzyl)-5-methylphenyl)-N-ethyl-N-methylformimidamide] | > 80% | > 80% | > 75% | > 80% | > 75% | –
CCN(C)C=Nc1cc(C)c(Cc2cccc(OC(F)(F)F)c2)cc1Cl [Compound 124, N′-(2-chloro-5-methyl-4-(3-(trifluoromethoxy)benzyl)phenyl)-N-ethyl-N-methylformimidamide] | > 80% | > 80% | > 75% | > 80% | > 75% | –
CCN(C)C=Nc1cc(C)c(Cc2cccc(Cl)c2F)cc1Cl [Compound 123, N′-(2-chloro-4-(3-chloro-2-fluorobenzyl)-5-methylphenyl)-N-ethyl-N-methylformimidamide] | > 80% | > 80% | > 75% | > 80% | > 75% | –
Cc1cc(N=CN2CCSCC2)c(C)cc1Cc1ccccc1F [Compound 85, N-(4-(2-fluorobenzyl)-2,5-dimethylphenyl)-1-thiomorpholinomethanimine] | > 80% | > 80% | > 75% | > 80% | > 75% | –
Cc1cc(N=CN2CCCCC2)c(Cl)cc1Cc1cccc(F)c1 [Compound 39, N-(2-chloro-4-(3-fluorobenzyl)-5-methylphenyl)-1-(piperidin-1-yl)methanimine] | – | > 80% | > 75% | > 80% | > 75% | –
CCN(C)C=Nc1cc(F)c(Cc2cccc(C)c2)cc1F [Compound 244, N′-(2,5-difluoro-4-(3-methylbenzyl)phenyl)-N-ethyl-N-methylformimidamide] | > 80% | – | > 75% | > 80% | > 75% | > 70%
CCN(C)C=Nc1cc(C)c(Cc2ccc(Cl)c(Cl)c2)cc1Cl [Compound 20, N′-(2-chloro-4-(3,4-dichlorobenzyl)-5-methylphenyl)-N-ethyl-N-methylformimidamide] | – | > 80% | > 75% | > 80% | > 75% | > 70%
CCN(C)C=Nc1cc(C)c(Cc2ccccc2C)cc1Cl [Compound 122, N′-(2-chloro-5-methyl-4-(2-methylbenzyl)phenyl)-N-ethyl-N-methylformimidamide] | – | > 80% | > 75% | > 80% | > 75% | –
Cc1cc(N=CN2CCOCC2)c(C)cc1Cc1ccc(F)c(Cl)c1 [Compound 34, N-(4-(3-chloro-4-fluorobenzyl)-2,5-dimethylphenyl)-1-morpholinomethanimine] | – | > 80% | > 75% | > 80% | > 75% | > 70%
CCN(C)C=Nc1cc(F)c(Cc2cccc(Cl)c2)cc1F [Compound 243, N′-(4-(3-chlorobenzyl)-2,5-difluorophenyl)-N-ethyl-N-methylformimidamide] | – | > 80% | > 75% | > 80% | > 75% | > 70%
CCN(C)C=Nc1cc(C)c(Cc2c(Cl)cccc2Cl)cc1Cl [Compound 195, N′-(2-chloro-4-(2,6-dichlorobenzyl)-5-methylphenyl)-N-ethyl-N-methylformimidamide] | > 80% | > 80% | > 75% | – | > 75% | > 70%
